In ChEMBL document CHEMBL4507268 (2021):

Assays:
Rattus norvegicus = organism: Rattus norvegicus; conditions: Compound concentration 10.0 uM
[1] = target: 5-hydroxytryptamine receptor 2C (Homo sapiens) (UniProt P28335); conditions: Compound concentration 10.0 uM
[2] = target: T1, Serine/threonine-protein kinase 17A (Homo sapiens) (UniProt Q9UEE5); conditions: Compound concentration 1.0 uM
T1 sequence (whole entry): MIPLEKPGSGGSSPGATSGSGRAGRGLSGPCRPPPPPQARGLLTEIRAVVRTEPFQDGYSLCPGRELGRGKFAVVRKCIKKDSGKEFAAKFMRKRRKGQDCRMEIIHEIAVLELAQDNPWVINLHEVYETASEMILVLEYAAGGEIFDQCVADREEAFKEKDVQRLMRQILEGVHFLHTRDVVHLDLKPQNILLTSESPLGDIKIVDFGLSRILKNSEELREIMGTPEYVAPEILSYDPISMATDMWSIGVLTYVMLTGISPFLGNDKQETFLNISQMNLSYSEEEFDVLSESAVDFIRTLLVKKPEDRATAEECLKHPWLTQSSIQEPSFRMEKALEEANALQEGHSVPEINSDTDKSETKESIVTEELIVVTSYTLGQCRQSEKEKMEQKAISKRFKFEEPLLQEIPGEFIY

[3] = target: T2, Ephrin type-B receptor 3 (Homo sapiens) (UniProt P54753); conditions: Compound concentration 1.0 uM
T2 sequence (whole entry): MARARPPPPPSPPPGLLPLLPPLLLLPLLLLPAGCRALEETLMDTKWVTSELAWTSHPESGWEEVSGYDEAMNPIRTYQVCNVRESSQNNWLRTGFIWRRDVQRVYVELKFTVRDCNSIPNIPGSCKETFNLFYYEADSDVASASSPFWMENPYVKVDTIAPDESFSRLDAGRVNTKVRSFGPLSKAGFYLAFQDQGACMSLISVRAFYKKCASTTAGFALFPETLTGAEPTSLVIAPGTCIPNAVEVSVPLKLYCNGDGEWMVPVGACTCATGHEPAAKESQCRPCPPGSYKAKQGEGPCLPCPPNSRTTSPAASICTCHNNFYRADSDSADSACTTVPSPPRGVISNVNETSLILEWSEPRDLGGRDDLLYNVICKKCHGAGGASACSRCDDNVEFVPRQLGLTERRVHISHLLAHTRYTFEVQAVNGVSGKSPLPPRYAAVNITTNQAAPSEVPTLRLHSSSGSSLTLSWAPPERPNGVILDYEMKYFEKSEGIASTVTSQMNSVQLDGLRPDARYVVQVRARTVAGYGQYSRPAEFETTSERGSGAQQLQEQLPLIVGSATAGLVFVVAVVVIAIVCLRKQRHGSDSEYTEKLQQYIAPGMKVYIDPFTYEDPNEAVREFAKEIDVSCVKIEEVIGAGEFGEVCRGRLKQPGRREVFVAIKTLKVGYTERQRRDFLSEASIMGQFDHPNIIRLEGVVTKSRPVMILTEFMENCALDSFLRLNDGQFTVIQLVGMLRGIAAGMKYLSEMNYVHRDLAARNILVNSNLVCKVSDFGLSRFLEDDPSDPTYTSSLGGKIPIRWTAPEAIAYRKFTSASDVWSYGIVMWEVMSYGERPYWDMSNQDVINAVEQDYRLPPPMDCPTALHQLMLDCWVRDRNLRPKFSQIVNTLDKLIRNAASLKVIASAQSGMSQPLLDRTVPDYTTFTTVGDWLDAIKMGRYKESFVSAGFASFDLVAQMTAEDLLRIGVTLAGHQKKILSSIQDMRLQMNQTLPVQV

[4] = target: Glycogen synthase kinase-3 alpha (Homo sapiens) (UniProt P49840); conditions: Compound concentration 1.0 uM
[5] = target: Protein kinase C gamma type (Homo sapiens) (UniProt P05129); conditions: Compound concentration 1.0 uM
[6] = target: T3, Tyrosine-protein kinase receptor TYRO3 (Homo sapiens) (UniProt Q06418); conditions: Compound concentration 1.0 uM
T3 sequence (whole entry): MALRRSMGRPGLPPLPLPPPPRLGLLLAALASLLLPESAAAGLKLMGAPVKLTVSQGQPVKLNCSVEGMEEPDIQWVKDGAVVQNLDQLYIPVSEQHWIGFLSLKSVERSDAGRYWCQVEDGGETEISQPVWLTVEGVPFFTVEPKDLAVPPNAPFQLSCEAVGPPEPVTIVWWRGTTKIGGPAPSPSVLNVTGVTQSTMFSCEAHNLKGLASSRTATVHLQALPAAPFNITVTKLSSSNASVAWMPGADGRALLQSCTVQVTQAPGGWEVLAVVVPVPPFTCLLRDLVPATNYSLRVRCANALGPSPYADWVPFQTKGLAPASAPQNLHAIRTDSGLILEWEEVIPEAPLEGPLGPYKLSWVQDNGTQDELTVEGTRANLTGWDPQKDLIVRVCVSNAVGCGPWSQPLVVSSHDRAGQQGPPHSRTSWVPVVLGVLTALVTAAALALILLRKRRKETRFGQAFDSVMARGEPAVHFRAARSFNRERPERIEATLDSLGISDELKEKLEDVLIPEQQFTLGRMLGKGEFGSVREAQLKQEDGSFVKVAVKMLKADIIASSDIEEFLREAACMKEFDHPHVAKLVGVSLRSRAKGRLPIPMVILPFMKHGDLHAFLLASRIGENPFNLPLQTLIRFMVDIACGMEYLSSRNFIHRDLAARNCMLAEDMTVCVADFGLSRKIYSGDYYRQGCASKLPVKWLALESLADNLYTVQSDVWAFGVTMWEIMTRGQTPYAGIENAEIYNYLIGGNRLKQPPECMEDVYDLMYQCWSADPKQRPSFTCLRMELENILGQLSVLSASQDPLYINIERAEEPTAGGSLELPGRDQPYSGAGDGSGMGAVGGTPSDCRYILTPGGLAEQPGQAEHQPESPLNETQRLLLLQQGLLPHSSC

[7] = target: Testis-specific serine/threonine-protein kinase 2 (Homo sapiens) (UniProt Q96PF2); conditions: Compound concentration 1.0 uM
[8] = target: Non-receptor tyrosine-protein kinase TYK2 (Homo sapiens) (UniProt P29597); conditions: Compound concentration 1.0 uM
Chain of Non-receptor tyrosine-protein kinase TYK2 (Homo sapiens) (P29597 whole entry): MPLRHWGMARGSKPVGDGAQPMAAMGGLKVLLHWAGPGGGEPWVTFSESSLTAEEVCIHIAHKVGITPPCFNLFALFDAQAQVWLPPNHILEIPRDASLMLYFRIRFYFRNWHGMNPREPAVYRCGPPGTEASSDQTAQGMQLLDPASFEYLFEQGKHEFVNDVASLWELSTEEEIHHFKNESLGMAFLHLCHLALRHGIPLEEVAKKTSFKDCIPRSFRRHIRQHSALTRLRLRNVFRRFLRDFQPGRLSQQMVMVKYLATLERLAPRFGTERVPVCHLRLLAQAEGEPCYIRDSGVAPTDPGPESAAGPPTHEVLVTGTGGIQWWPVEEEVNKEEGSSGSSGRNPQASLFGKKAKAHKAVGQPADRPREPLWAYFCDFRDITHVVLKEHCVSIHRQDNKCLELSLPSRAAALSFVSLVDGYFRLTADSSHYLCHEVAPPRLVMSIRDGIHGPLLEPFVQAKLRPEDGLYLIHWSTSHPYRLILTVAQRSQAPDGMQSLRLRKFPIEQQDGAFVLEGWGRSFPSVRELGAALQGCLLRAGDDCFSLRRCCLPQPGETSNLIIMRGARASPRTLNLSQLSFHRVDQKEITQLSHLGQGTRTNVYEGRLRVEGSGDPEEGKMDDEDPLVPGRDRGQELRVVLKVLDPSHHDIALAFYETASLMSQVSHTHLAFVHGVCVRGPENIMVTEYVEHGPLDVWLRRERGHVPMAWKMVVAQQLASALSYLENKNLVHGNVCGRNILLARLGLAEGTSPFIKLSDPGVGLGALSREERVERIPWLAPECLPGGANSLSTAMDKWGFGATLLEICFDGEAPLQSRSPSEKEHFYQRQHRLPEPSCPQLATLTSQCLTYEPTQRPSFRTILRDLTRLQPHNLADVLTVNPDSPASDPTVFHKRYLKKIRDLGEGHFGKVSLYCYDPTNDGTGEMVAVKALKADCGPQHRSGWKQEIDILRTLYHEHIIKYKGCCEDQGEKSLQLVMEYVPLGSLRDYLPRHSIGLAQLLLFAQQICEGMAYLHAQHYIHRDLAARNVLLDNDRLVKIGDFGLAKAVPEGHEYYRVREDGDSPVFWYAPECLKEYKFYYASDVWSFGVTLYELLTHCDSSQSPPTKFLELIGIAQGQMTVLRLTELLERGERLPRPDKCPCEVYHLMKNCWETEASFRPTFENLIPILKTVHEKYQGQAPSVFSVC

Chain of Testis-specific serine/threonine-protein kinase 2 (Homo sapiens) (Q96PF2 whole entry): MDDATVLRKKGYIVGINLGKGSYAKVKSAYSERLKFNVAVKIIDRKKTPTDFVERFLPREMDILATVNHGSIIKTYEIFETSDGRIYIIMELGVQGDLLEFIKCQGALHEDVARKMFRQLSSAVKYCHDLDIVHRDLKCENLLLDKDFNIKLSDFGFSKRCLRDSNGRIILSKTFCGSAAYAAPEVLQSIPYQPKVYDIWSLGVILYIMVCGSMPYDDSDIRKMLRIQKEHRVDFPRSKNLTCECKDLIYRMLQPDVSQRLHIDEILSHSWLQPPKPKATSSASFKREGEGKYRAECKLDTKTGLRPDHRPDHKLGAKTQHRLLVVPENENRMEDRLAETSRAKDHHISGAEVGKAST
Chain of 5-hydroxytryptamine receptor 2C (Homo sapiens) (P28335 whole entry): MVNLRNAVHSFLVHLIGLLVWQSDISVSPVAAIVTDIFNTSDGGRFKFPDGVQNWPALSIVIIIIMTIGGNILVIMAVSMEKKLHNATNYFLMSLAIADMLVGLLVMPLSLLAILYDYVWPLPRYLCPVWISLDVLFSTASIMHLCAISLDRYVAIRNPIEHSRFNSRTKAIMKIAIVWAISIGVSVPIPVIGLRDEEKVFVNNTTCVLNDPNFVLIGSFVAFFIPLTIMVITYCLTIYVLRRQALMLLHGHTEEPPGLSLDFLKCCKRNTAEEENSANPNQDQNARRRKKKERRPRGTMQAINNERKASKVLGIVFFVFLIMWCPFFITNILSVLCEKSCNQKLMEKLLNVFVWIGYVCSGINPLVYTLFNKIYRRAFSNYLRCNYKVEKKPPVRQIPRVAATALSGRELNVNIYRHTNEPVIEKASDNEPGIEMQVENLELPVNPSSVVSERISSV
Chain of Glycogen synthase kinase-3 alpha (Homo sapiens) (P49840 2-483 limits assumed): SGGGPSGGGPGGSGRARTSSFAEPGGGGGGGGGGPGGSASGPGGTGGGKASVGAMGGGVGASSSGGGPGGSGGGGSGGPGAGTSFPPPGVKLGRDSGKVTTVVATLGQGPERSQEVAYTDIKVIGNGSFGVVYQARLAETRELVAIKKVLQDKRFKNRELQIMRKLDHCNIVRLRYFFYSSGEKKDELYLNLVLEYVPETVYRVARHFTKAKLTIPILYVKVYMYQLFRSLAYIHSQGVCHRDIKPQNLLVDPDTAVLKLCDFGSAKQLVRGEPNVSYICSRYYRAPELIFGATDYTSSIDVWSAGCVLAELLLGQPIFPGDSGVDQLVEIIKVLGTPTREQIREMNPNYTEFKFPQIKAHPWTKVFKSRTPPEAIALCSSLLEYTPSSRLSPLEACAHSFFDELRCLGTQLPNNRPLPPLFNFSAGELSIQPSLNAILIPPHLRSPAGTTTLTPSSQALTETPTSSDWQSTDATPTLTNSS

Cc1nc(C2CCN(C(=O)c3ccc(OC(F)(F)F)cc3N)CC2)c2ncc(N3CCN(C)CC3)cc2n1 [BAY-693]
inactive: inhibition (Rattus norvegicus) -4.32%

CN1CCN(c2cnc3c(C4CCN(C(=O)c5ccc(OC(F)(F)F)cc5N)CC4)ncnc3c2)CC1 [BAY-885]
inactive: inhibition [1] -4.77% | % residual kinase activity [2] 85% | % residual kinase activity [3] 42% | % residual kinase activity [4] 112% | % residual kinase activity [5] 120% | % residual kinase activity [6] 100% | % residual kinase activity [7] 113% | % residual kinase activity [8] 110%
